Calls of active or inactive are those of the source.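 How the source made its calls: active means AC50 no more than ten times the top concentration tested, that is within one log above it; inconclusive means flat curve fit with activity between 30% and 70%, or invalid poor fit; inactive means AC50 beyond ten times the top tested dose.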

This assay has as its system S. cerevisiae Mot1-301 ts growth rescue, BacTiter-Glo ATP luminescence. Put plainly: growth rescue of Mot1-301 ts yeast, confirmation, SUMOylation pathway inhibitor project, whole organism, S. cerevisiae, Mot1-301 ts mutant, luminescence, dose retest (AID 463204).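 Further: growth at restrictive 38.5 degrees C of Mot1-301 OY566 strain; actives raise luminescence by restoring growth of the ts mutant at high temperature.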
For orientation: AC50 means the concentration giving half of the maximal activity seen. As to `COc1ccccc1CNC(=O)CN(c1ccc(C)cc1)S(=O)(=O)c1c(C)n[nH]c1C`, the AC50 was > 110 µM (inactive). For `CCN(C(=O)Nc1ccccc1OC)c1c(N)n(Cc2ccccc2)c(=O)[nH]c1=O`, the AC50 is > 42 µM (inactive). For the compound `CCSc1nc2ccccc2c(=O)n1C1CCOC(C)(C)C1` (centres undefined), the AC50 is > 42 µM (inactive). Next, `COc1ccc(/C=C/C(=O)N2CCC(C(N)=O)CC2)cc1S(=O)(=O)N1CCOCC1`: > 42 µM (inactive); `CC(=Nc1ccccc1)C1=C(O)CC(C)(C)CC1=O`: > 42 µM (inactive); `O=C(CCCC(=O)N(CC(=O)NC1CCCC1)c1cccc(F)c1)Nc1ccccn1`: > 42 µM (inactive). Then `O=C(/C(=N\Nc1ccc(Br)cc1)Sc1nnnn1-c1ccccc1)c1ccccc1`, with > 42 µM (inactive); and `COc1ccc(-c2cc(=O)c3cc(O)ccc3o2)cc1`, with > 42 µM (inactive).

Take `Cc1cc(C)c(NC(=O)CCN2CCN(Cc3ccccc3)CC2)c(C)c1`: the AC50 was > 42 µM (inactive). On to `N#CCCN(C(=O)COC(=O)c1ccc(S(=O)(=O)Nc2ccccc2)cc1)c1ccccc1`, for which the AC50 is > 42 µM (inactive). Regarding `N#Cc1ccc(Oc2ccc(S(=O)(=O)N3CCCCC3)cn2)cc1`, the AC50 was > 42 µM (inactive). Then `CCOc1ccccc1NC(=O)CSc1nc(N)c(C#N)cc1C#N`, with > 42 µM (inactive); and `Cc1c(O)ccc(C(=O)CN2C(=O)c3ccccc3C2=O)c1O`, with > 42 µM (inactive). Then `Cc1ccc(C)c(S(=O)(=O)n2cnc3ccccc32)c1`, with > 42 µM (inactive); and `O=C(O)COc1ccc(=O)n(-c2ccccc2)n1`, with > 42 µM (inactive). For `COc1cc(NC(=O)CCN2CCN(Cc3ccccc3)CC2)cc(OC)c1`, the AC50 was > 42 µM (inactive).

`OC(c1ccccc1)(C1CCCCC1)C(CN1CCOCC1)c1ccccc1` (centres undefined): the AC50 is 13.9 µM. Consider `CC(C)NC(=O)NC(=O)COC(=O)CCCSc1nc2ccccc2s1`, for which the AC50 was > 42 µM (inactive). For `O=c1cnc2cc([N+](=O)[O-])ccc2[nH]1`, the AC50 is > 42 µM (inactive). Then `O=C(Cc1ccccc1)N1CCCC1c1ccccc1` (centres undefined), with > 42 µM (inactive); and `CN(C)C(=O)c1cc(C(=O)c2ccc(C(F)(F)F)cc2F)c[nH]1`, with > 42 µM (inactive); and `CCOc1ccccc1NC(=O)c1ccc2c(c1)C(=O)N(CC(C)C)C2=O`, with > 42 µM (inactive). Take `Cc1ccc(S(=O)(=O)NC2CCCCCCC2)cc1`: the AC50 is 18.1 µM. Regarding `Cc1ccc(-n2c(C)cc(/C=N/NC(=O)c3ccncc3)c2C)cc1C`, the AC50 is > 42 µM (inactive). Regarding `Cc1ccc(-c2nc(-c3cccnc3)sc2CC(=O)O)cc1`, the AC50 was > 42 µM (inactive). Then `O=c1[nH]c(O)c(N=Nc2cc([N+](=O)[O-])ccc2O)c(=O)[nH]1`, with > 42 µM (inactive). Next, `CC(C)Oc1ccc(C2(C#N)CC[N+](C)(C)CC2)cc1`: > 42 µM (inactive); `Cc1ccc(NC(=O)Cn2c(CCC(=O)O)ccc2-c2cccs2)cc1`: > 42 µM (inactive). Regarding `CCCNC(=O)Cn1nc(C)n2c(cc3cc(F)ccc32)c1=O`, the AC50 was > 42 µM (inactive). As to `COc1ccc(CCN2CC(C(=O)N(C)CC(=O)Nc3cccc(F)c3)CC2=O)cc1OC` (centres undefined), the AC50 was > 42 µM (inactive).

Turning to `CCCn1c(N)cc(=O)n(CCC)c1=O`, the AC50 is > 42 µM (inactive). Take `Clc1cc(Br)ccc1OCCOCCN1CCOCC1`: the AC50 is > 42 µM (inactive). Then `Nc1ccc(C2(c3ccc(N)cc3)OC(=O)c3ccccc32)cc1`, with > 42 µM (inactive). Consider `COCCNC(=O)NC(=O)CSc1nc(C)c(C)c(C)n1`, for which the AC50 was > 42 µM (inactive). As for `O=C(COC(=O)c1c(F)cccc1F)c1ccc[nH]1`, the AC50 is > 42 µM (inactive). Next, `CN(C/C=C/c1ccccc1[N+](=O)[O-])Cc1ccccc1`: > 42 µM (inactive); `CCOC(=O)C1CCN(C(=O)COc2ccc(S(=O)(=O)N3CCOCC3)cc2C)CC1`: > 42 µM (inactive); `CC(C)(C)C(=O)Nc1ccc(C(=O)NCc2cccnc2)cc1`: > 42 µM (inactive). Then `O=C(CSc1nnc(-c2ccccc2Cl)o1)Oc1ccc(Br)cc1`, with > 42 µM (inactive); and `Clc1ccc(N=c2ssnc2Cl)nc1`, with 0.78 µM. Regarding `COc1cc(NC(=O)CN2CCN(CC(=O)Nc3ccccc3OC)CC2)cc(OC)c1`, the AC50 was > 42 µM (inactive).

On to `CCOC(=O)c1ccc(NC(=O)c2nc[nH]c2C(=O)N2CCc3ccccc3C2)cc1`, for which the AC50 was > 42 µM (inactive). Then `CCn1c(SCC(=O)Nc2ccc(OCc3ccccc3)cc2)nnc1-c1ccco1`, with > 42 µM (inactive); and `C[N+](C)(C)CC(=O)Nc1ccc(Cl)cc1C(=O)c1ccccc1`, with > 42 µM (inactive); and `COc1cc(/C=N/n2cnnc2)ccc1OCc1ccccc1`, with > 42 µM (inactive). For `CCn1c(-c2ccccc2)c(C(=O)CC#N)c2ccccc21`, the AC50 is > 42 µM (inactive). For the compound `O=C(COc1ccc(Cl)cc1)NCCCNC(=O)c1ccccn1`, the AC50 was > 42 µM (inactive). For `Cc1ccccc1Nc1c([N+](=O)[O-])ccc2c1=NC1(CCCCC1)N=2`, the AC50 was > 42 µM (inactive). For the compound `CCc1ccc2c(c1)C(c1ccc([N+](=O)[O-])cc1)=NNC(c1ccc(C)cc1)=N2`, the AC50 was > 42 µM (inactive). `O=C(O)c1c(C(=O)O)c(-c2ccc(F)cc2)n2c1CCC2`: the AC50 was > 42 µM (inactive).

Regarding `CC1CN(Cc2ccccc2)c2nc3c(c(=O)[nH]c(=O)n3C)n2C1` (centres undefined), the AC50 is > 42 µM (inactive). `COc1ccc(CN2C(=O)c3c(c(C)n(C)c3C)C2C(=O)NC2CCC(C)CC2)cc1` (centres undefined): the AC50 was > 21 µM (inactive). Then `O=C(N/N=C/C(Br)=C/c1ccccc1)c1cccnc1`, with 21.5 µM. Consider `O=c1c2ccccc2nc(COc2ccccc2)n1/N=C/c1cn[nH]c1-c1ccccc1`, for which the AC50 is > 42 µM (inactive). Next, `CCOC(=O)c1sc2ncn(C(CC)C(=O)OCC)c(=O)c2c1C` (centres undefined): > 42 µM (inactive); `Cc1nc2c(-c3ccc(F)cc3)cnn2c2c1CCC2`: > 42 µM (inactive).

Turning to `Cc1ccc(CNC(=O)c2ccc(N3CCC4(CC3)CC(c3ccccc3)=NO4)c(NC(=O)c3cccc(C)c3)c2)cc1`, the AC50 is > 42 µM (inactive). Next, `O=C(O)c1cccc(N2C(=O)C3C4C=CC(C4=C(c4ccccc4)c4ccccc4)C3C2=O)c1` (centres undefined): > 42 µM (inactive). Then `CC(=O)Nc1cccc(OCC(O)Cn2c(C)nc3ccccc32)c1` (centres undefined), with > 42 µM (inactive). Next, `CCCOC(=O)c1c(-c2ccc(OC)cc2)oc2ccc(-c3ccc(OC)nc3)cc12`: > 42 µM (inactive).

Take `Cc1ccc(S(=O)(=O)n2cccc2C)cc1`: the AC50 was > 42 µM (inactive). As to `COC(=O)c1ccc(Cl)c(NC(=O)CN(c2ccc(OC)c(OC)c2)S(C)(=O)=O)c1`, the AC50 is > 42 µM (inactive). Then `CCOC(=O)CN1NC2(CCC(C(C)(C)C)CC2)NC1=S` (centres undefined), with > 42 µM (inactive); and `COc1nc(-c2ccccc2)ccc1-c1noc(-c2ccccc2)n1`, with > 42 µM (inactive); and `O=C(NC1CCCCC1)C(c1ccncc1)N(Cc1ccc2c(c1)OCO2)C(=O)C(F)(F)F` (centres undefined), with > 42 µM (inactive). With `CCc1c(C(=O)N2CCN(c3ccccc3F)CC2)[nH]c(C)c1C(C)=O`, the AC50 was > 42 µM (inactive). Next, `CCN(CC)C(=O)CSC(Nc1cccc(F)c1)=C(C#N)C#N`: > 42 µM (inactive); `OC1(c2ccc(F)cc2)CC2CCC(C1)N2Cc1nnnn1C1CCCCC1` (centres undefined): > 42 µM (inactive). Then `O=C1OCc2cc(NS(=O)(=O)c3cccs3)ccc21`, with > 42 µM (inactive); and `Cc1ccc2c(c1)C(O)(CC(=O)c1cccnc1)C(=O)N2` (centres undefined), with > 42 µM (inactive); and `CCS(=O)(=O)c1nc(S(=O)(=O)c2ccc(Cl)cc2)c(N2CCc3ccccc3C2)s1`, with > 42 µM (inactive). Take `CS(=O)(=O)N(CC(=O)N1CCN(c2ccccc2F)CC1)C1CCCCC1`: the AC50 is > 42 µM (inactive). Next, `Cc1nc(N)c(Cc2ccccc2F)c(N)n1`: > 42 µM (inactive); `CCOc1ccc(-c2nnc(SCC(=O)N3CCCC3)o2)cc1`: > 42 µM (inactive). In the case of `COc1ccccc1CNCc1cc(OC)c(OC)c(OC)c1`, the AC50 was > 42 µM (inactive). `COc1cccc(OC)c1C(=O)N1CCN(Cc2ccccc2C)CC1`: the AC50 is > 42 µM (inactive). Then `CCN(CC(=O)N1CCCCCC1)S(=O)(=O)c1ccc(Cl)cc1`, with > 42 µM (inactive). `CCC(C)[C@H](NC(=O)Nc1ccc(S(N)(=O)=O)cc1)C(=O)OC` (some centres undefined): the AC50 was > 42 µM (inactive).

Consider `COc1ccc(/C=N/NC(=O)c2nnn(-c3nonc3N)c2-c2cccs2)cc1OC`, for which the AC50 is > 42 µM (inactive). As to `Cc1nc2sc(C(c3ccco3)N3CCOCC3)c(O)n2n1` (centres undefined), the AC50 was > 42 µM (inactive). Regarding `CC[C@@H]1C/C=C\Cc2ccccc2[C@H](C(=O)C[C@@H](O)CC(C)=O)OC1=O`, the AC50 was 8.7 µM.

`COc1ccc(S(=O)(=O)N2CCc3cc4c(cc3C2C)OCCCO4)cc1` (centres undefined): the AC50 was > 42 µM (inactive). Next, `COc1ccc(C(=O)CSc2nnc3ccc(-c4ccccn4)nn23)cc1`: > 42 µM (inactive).

Take `C/C(N)=C(/C#N)C(=O)CSc1nnc(-c2ccccc2)n1C`: the AC50 was > 42 µM (inactive). `CCn1nnc(-c2ccccc2NC(=O)c2cnccn2)n1`: the AC50 was > 42 µM (inactive). As for `CCN(CC)CCCn1c(=S)[nH]c2ccc(Cl)cc2c1=O`, the AC50 is > 42 µM (inactive).

In the case of `CS(=O)(=O)N(CC(=O)Nc1ccccc1C(=O)N1CCCC1)c1ccc2c(c1)OCO2`, the AC50 was > 42 µM (inactive). Then `COC(=O)c1cc2c(s1)-c1ccc(OC)cc1CC2`, with > 42 µM (inactive). For the compound `CCCCNC(=O)C1C2C=CC3(CN(Cc4ccc(C)cc4)C(=O)C13)O2` (centres undefined), the AC50 was > 42 µM (inactive).

(Values after PubChem BioAssay AID463204 (Broad Institute, 2010).)
